Experimental data from ChEMBL document CHEMBL1687692, “Exploring α7-Nicotinic Receptor Ligand Diversity by Scaffold Enumeration from the Chemical Universe Database GDB” (ACS Med Chem Lett, 2010).
One block for each compound: values may come before it.

Assays:
[1] = molecular target: T1, Neuronal acetylcholine receptor subunit alpha-7 (Homo sapiens, UniProt P36544); test: Partial agonist activity at human alpha7 nAChR expressed in Xenopus oocyte […] current by voltage clamp method; format: functional
[2] = molecular target: T1, Neuronal acetylcholine receptor subunit alpha-7; test: Binding affinity to human alpha7 nAChR
[3] = molecular target: T1, Neuronal acetylcholine receptor subunit alpha-7; test: Antagonist activity at human alpha7 nAChR expressed in Xenopus oocyte assessed as inhibition of ACh-induced current by voltage clamp method; format: functional
[4] = molecular target: T1, Neuronal acetylcholine receptor subunit alpha-7; test: Competitive antagonist activity at human alpha7 nAChR expressed in Xenopus oocyte assessed as inhibition of ACh-induced current by voltage clamp method; format: functional
[5] = molecular target: T1, Neuronal acetylcholine receptor subunit alpha-7; test: Non competitive antagonist activity at human alpha7 nAChR expressed in Xenopus oocyte assessed as inhibition of ACh-induced current by voltage clamp method; format: functional

T1 sequence (P36544 whole entry): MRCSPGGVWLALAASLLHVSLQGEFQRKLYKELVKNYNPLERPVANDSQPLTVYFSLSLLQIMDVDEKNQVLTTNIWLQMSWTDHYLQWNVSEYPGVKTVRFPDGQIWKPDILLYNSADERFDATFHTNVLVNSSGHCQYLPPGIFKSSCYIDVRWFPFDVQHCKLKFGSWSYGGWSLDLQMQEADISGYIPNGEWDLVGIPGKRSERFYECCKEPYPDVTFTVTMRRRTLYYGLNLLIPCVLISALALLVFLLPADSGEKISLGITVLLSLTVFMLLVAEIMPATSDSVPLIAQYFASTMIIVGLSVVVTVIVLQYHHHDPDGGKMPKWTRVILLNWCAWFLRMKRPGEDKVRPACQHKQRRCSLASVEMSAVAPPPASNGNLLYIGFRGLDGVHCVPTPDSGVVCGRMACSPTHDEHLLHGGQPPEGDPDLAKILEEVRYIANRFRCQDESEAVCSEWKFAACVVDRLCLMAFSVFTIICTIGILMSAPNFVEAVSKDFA

Compound: O=C(Oc1ccc(Br)cc1)N1CCN2CCC1CC2 [SSR180711]
EC50 [1]: 4.4 µM
Ki [2]: 0.014 µM

IC50 [3]: 7.2 µM
Compound: O=C(NCC12CCCN1CCC2)c1ccc(Cl)cc1

Compound: O=C(Oc1ccc(Br)cc1)N1CCCN2CCC[C@H]2C1
IC50 [4]: 5.6 µM

IC50 [5]: 6.1 µM
Compound: C[C@H]1CN2CCCC[C@@H]2CN1C(=O)c1ccc2c(c1)OCCO2

IC50 [3]: 7 µM
Compound: CC(C)N1CCCCN(C(=O)c2ccc(Cl)cc2)CC1
